Measured values published in patent US20240307283A1, “COMPOSITIONS AND METHODS FOR DECREASING PIGMENTATION” (The General Hospital Corporation, priority 2021, published 2024).

Assays:
NNT = molecular target: T1, NNT (Homo sapiens, UniProt Q13423); assay: GSH/GSSG ratio (indirect endpoint of NNT enzyme activity) in primary melanocytes; type: cell-based; parameters: endogenous in cells; host or cells: primary human melanocytes (isolated from neonatal foreskins); settings: different doses, 24 hours
T1 sequence (Q13423 44-1086): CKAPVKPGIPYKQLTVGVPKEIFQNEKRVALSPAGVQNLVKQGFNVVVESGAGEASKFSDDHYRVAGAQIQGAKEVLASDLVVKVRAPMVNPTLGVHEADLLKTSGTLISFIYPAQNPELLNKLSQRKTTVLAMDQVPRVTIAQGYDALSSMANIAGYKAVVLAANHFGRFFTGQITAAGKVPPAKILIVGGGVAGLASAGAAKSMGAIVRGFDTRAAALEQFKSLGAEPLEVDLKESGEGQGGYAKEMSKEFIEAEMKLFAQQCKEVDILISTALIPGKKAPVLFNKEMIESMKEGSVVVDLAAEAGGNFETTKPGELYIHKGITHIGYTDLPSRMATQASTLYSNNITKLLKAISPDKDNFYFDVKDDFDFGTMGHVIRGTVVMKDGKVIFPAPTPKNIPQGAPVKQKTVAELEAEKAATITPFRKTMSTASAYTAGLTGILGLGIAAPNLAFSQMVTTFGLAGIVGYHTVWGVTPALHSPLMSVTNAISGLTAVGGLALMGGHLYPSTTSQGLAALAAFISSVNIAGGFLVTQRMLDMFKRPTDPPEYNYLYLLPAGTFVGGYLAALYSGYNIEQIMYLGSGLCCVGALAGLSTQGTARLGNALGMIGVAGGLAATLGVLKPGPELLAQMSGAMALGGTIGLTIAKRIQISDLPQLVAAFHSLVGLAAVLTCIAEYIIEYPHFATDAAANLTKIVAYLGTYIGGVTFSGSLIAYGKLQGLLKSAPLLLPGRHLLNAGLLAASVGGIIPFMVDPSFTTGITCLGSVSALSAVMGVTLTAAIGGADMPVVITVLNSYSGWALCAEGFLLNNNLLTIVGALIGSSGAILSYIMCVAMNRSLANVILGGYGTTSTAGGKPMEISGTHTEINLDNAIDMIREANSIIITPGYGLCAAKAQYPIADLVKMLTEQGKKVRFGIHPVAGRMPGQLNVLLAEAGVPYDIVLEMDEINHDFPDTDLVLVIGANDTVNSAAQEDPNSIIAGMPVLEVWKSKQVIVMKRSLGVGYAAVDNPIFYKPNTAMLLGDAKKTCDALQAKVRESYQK
Procedure: Glutathione measurements: Cell lysates were prepared from equal numbers of cells after 24 h of DCC or 2,3BD treatment, following the manufacturer's protocols. Seventy-two h post siRNA treatment or overexpression of NNT and their corresponding controls, glutathione levels were determined using the GSH/GSSG-Glo assay (Promega, #V6611) and luminescence was measured using an EnVision 2104 Multilabel Reader (PerkinElmer).

murine Melan-A cells = assay: Melanin content of Melan-A cells with NNT inhibitors; type: cell-based, mouse; settings: 2 mM, FIG. 3A
Procedure: Murine Melan-A (Bennett et al., 1987) cells were obtained from the Wellcome Trust Functional Genomics Cell Bank. Melan-A cells were grown in RPMI 1640 supplemented with 10% FBS or FetalPlex (Gemini Bio-Products, #100-602), 100,000 U/L penicillin, 100 mg/L streptomycin sulphate, 100× Glutamax, and 200 nM TPA.
In vitro culture with NNT inhibitors: 2,3-Butanedione 97% (2,3 BD) (Sigma Aldrich, #B85307) (1 μM, 10 μM, 100 μM, 2 mM), N,N-Dicyclohexylcarbodiimide (DCC) (Sigma Aldrich, #D80002) (1 mM, 2 mM, 10 mM), and Palmitoyl coenzyme A lithium salt (Sigma Aldrich, #P9716) (10 μM, 2 mM) were reconstituted with DMSO (American Type Culture Collection, 4-X).
Melanin quantification: Equal numbers of cells were plated in 6-well plates. The cells were then harvested 72-96 hours post siRNA or NNT inhibitors compounds, as indicated in the legends, pelleted, washed in PBS and counted. 10^6 cells were used for measurement of protein concentration with the Pierce BCA protein assay (Thermo Fisher Scientific, #23225) and 10^6 cells were resuspended in 60 μl of 1 N NaOH solution and incubated at 60° C. for 2 h or until the melanin was completely dissolved. After cooling down to room temperature, samples were centrifuged at 500×g for 10 min and the supernatants were loaded onto a 96-well plate. The melanin content was determined by measuring the absorbance at 405 nm on an Envision plate reader, compared with a melanin standard (0 to 50 μg/ml; Sigma Aldrich, #M8631). Melanin content was expressed as micrograms per milligram of protein.

human skin = assay: UVB-induced DNA damage (CPD, γ-H2AX) in human skin; type: cell-based; settings: 50 mM for 5 days
Procedure: Skin samples considered surgical waste were obtained de-identified from healthy donors (IRB #2013P000093) undergoing reconstructive surgery, according to institutional regulations. Full thickness human abdominal skin explants were cultured in petri dishes with a solid phase and liquid phase phenol red free DMEM medium containing 20% penicillin/streptomycin/glutamine, 5% fungizone (Gibco), and 10% fetal bovine serum. Compounds were applied strictly on top of the explants, making sure no drip occurred into the underlying media. For UV irradiation experiments, a UV lamp (UV Products) was used at 1000 mJ/cm^2 UVB. For immunofluorescence, paraffin sections were deparaffinized by xylene and rehydrated gradually with ethanol to distilled water. Sections were submerged in 0.01 M citrate buffer and boiled for 10 min for retrieval of antigen. The sections were washed with TBST (0.1% Tween 20) and blocked with protein blocking solution (Agilent, #X090930-2) for 1 h at room temperature before application of primary antibody [1:100 diluted in Antibody Diluent (DAKO, #S3022)] and incubation overnight at 4° C. The following day, sections were washed with TBST three times and incubated with secondary antibody Alexa Fluor 647 goat anti-mouse IgG (G+L) (ThermoFisher Scientific, #A-21236), Alexa Fluor 594 F(ab)2 fragment of goat anti-rabbit IgG (G+L) (ThermoFisher Scientific, #A-11072), or Alexa Fluor 555 goat anti-rabbit IgG (ThermoFisher Scientific, #A-21428). After washing, the tissue sections were cover-slipped with mounting medium (SlowFade® Gold Antifade Reagent with DAPI, ThermoFisher Scientific, #S36939). MaxBlock Autofluorescence Reducing Reagent Kit (MaxVision Biosciences, #MB-L) was used to quench skin tissue autofluorescence according to the reagent instructions. […]

GSH/GSSG ratio (NNT): decreased GSH/GSSG ratios
SMILES: CC(=O)C(C)=O [2,3BD, 2,3-Butanedione]
melanin content (murine Melan-A cells): increased melanin content | toxicity by γ-H2AX (human skin): non-toxic | UVB-induced CPD formation (human skin; skin type 2-3, then 1000 mJ/cm^2 UVB): protected against formation of UVB-induced CPD | UVB-induced γ-H2AX induction (human skin; then UVB): could protect human skin from UVB-induced γ-H2AX induction
